Measured values reported in patent US8481459B2, “Chemical inhibitors of ethylene biosynthesis” (Academia Sinica, priority 2010, dated 2013).

Test system: gene expression in etiolated eto1-4 seedlings
Assay: Transcriptional profiling (ATH1 GeneChip microarray) of etiolated eto1-4 seedlings
Assay type: in vivo, Arabidopsis thaliana
Protocol: For chemical treatments, seeds were sown on 0.5×MS agar medium supplemented with 10 μM chemicals (AVG, compounds 9393, 9370, and 7303) or DMSO (as control). Arabidopsis seeds were stratified in the dark at 4° C. for 4 days, then germinated in the dark for 3 days at 22° C. Approximately 2,000 etiolated seedlings of the wild type or eto1-4 were used to collect tissues for preparation of total RNA in each microarray experiment with Arabidopsis ATH1 GeneChip (Affymetrix). Extraction of RNA followed an established protocol (Chang, et al. (1993) Plant Mol. Biol. Rep. 11, 113-117). Total RNA (10 μg) was used to prepare biotinylated cRNA for hybridization to ATH1 GeneChip in the experiments disclosed herein. Experiments were repeated by 2 independent biological duplicates, and candidate genes present in both experiments were selected for further analysis. The MASS method was used for data analysis and normalization by all sample medium. Candidate genes were selected by the following criteria. First, genes with 1.5-fold differential expression between the wild type and eto1-4 were selected as the master gene pool, which was then used for comparison in treatments with AVG and individual exemplary compounds. Data were presented in hierarchical clustering and Venn diagram format. Agilent GeneSpring GX and Bioconductor software were used to analyze the expression profile data. Gene Ontology descriptions were generated by GeneSpring GX and further referred to the TAR GO database. Raw data are available in the GEO database (http://www.ncbi.nlm.nih.gov/geo) with Accession no. GSE20897.
The filtered and normalized expression data set from 22810 probes on the ATH1 Genechip was used for hierarchical clustering of gene expression profiles for comparison between AVG and the exemplary invention compounds in eto1-4. It was identified that 1,446 genes show at least 1.5-fold difference in expression between the WT and eto1-4 and used them as the master gene pool for clustering analysis (FIG. 7A). […] These genes likely contribute to the etiolated phenotype of eto1-4 by responding to elevated endogenous ethylene. To determine whether the exemplary compounds have specific r overlapping functions with AVG to suppress the eto1-4 phenotype, genes that are regulated by individual exemplary invention compounds and AVG for Venn diagram analysis were clustered (FIG. 7B). More than 63% of genes (356/561 for compound 9393; 389/561 for compound 9370; 399/561 for compound 7303; FIG. 7B) with expression associated with AVG were co-regulated by the exemplary invention compounds, which indicates an overlap function in suppression of the ethylene phenotype in eto1-4. […] Next genes co-regulated by all of the exemplary invention compounds and AVG were examined by performing a clustering analysis using the co-regulated genes identified in FIG. 7B: 356 (compound 9393 vs AVG), 389 (compound 9370 vs AVG) and 399 genes (compound 7303 vs AVG). It was uncovered that 276 genes were co-regulated by all of the exemplary invention compounds and AVG (FIG. 7C and Table 2). On the basis of GO descriptions generated by Gene Spring GX and TAIR database, the 276 genes were divided into subgroups related to their biological functions (Table 2). […] In addition, stress- and pathogenesis-related genes were among the co-regulated genes, possibly because ethylene is involved in both biotic and abiotic stresses.
Genes (1446 non-redundant loci) were selected by 1.5-fold differential expression between eto1-4 and WT as the master pool for analysis. These genes were used for comparison between chemical treatments by AVG and the exemplary invention compounds. The finalized 276 genes that are co-regulated by AVG and all of the exemplary invention compounds are shown. Locus ID also present in Nemhauser et al. (Nemhauser, et al. (2006) Cell 126, 467-475).

[1] = of 1446 genes differentially expressed between WT and eto1-4, 10 μM
[2] = ratio eto1-4 treated to eto1-4 (no treatment)

## Cc1ccc(C2CC(=O)c3cnc(NC4CCCC4)nc3C2)cc1 (centres unmarked) [Compound 9370]
Of 561 genes associated with AVG, 10 μM
  number of genes co-regulated with AVG: 389 genes
[1]
  number of genes regulated (expression reverted close to WT): 728 genes
  percentage of genes regulated (expression reverted close to WT): 50.3%
Of all genes regulated by the compound (629, 728, 650), 10 μM
  number of genes regulated specifically, not related to AVG treatment: 339 genes
[2]
  Signal Fold Change AT1G03457, unknown biological function: 2.50
  Signal Fold Change AT1G03660, unknown biological function: 2.61
  Signal Fold Change AT1G05010 ACC oxidase: 0.28
  Signal Fold Change AT1G05760 jacalin lectin protein: 3.58
  Signal Fold Change AT1G06720 expressed protein: 1.28
  Signal Fold Change AT1G07280, unknown biological function: 0.51
  Signal Fold Change AT1G07560 leucine-rich repeat protein kinase: 2.24
  Signal Fold Change AT1G08650 phosphoenolpyruvate carboxylase kinase: 2.03
  Signal Fold Change AT1G08990 glycogenin glucosyltransferase: 2.25
  Signal Fold Change AT1G09530 phytochrome interacting factor 3: 0.28
  Signal Fold Change AT1G10760 starch excess protein (SEX1): 0.33
  Signal Fold Change AT1G13430, response to cytokinin stimulus, sulfotransferase protein: 0.28
  Signal Fold Change AT1G14540 anionic peroxidase: 0.53
  Signal Fold Change AT1G15380 lactoylglutathione lyase: 2.66
  Signal Fold Change AT1G17970, unknown biological function: 2.50
  Signal Fold Change AT1G18880 proton-dependent oligopeptide transport (POT) protein: 1.93
  Signal Fold Change AT1G20190, cell wall organization and biogenesis, expansin (EXP11): 0.31
  Signal Fold Change AT1G22740 Ras-related protein (RAB7): 2.62
  Signal Fold Change AT1G23060, unknown biological function: 0.36
  Signal Fold Change AT1G26930, unknown biological function: 0.47
  Signal Fold Change AT1G27380 p21-rho-binding domain-containing protein: 1.96
  Signal Fold Change AT1G29520, unknown biological function: 1.93
  Signal Fold Change AT1G30750, unknown biological function: 2.58
  Signal Fold Change AT1G31710 copper amine oxidase: 4.67
  Signal Fold Change AT1G32410 vacuolar protein sorting 55 protein: 2.06
  Signal Fold Change AT1G32560 late embryogenesis abundant group 1 domain-containing protein: 1.59
  Signal Fold Change AT1G33470, unknown biological function: 2.21
  Signal Fold Change AT1G33790, unknown biological function: 0.18
  Signal Fold Change AT1G34040, unknown biological function: 2.08
  Signal Fold Change AT1G35350, unknown biological function: 4.97
  Signal Fold Change AT1G35612, unknown biological function: 3.56
  Signal Fold Change AT1G42470, unknown biological function: 4.28
  Signal Fold Change AT1G44800, unknown biological function: 1.93
  Signal Fold Change AT1G44830 AP2-containing transcription factor: 0.34
  Signal Fold Change AT1G48480 leucine-rich repeat trans-membrane protein kinase: 2.68
  Signal Fold Change AT1G49660 expressed protein: 0.34
  Signal Fold Change AT1G50560 cytochrome P450: 2.32
  Signal Fold Change AT1G52830 auxin-responsive protein: 5.14
  Signal Fold Change AT1G56010 transcription activator NAC1: 2.65
  Signal Fold Change AT1G56020, unknown biological function: 0.50
  Signal Fold Change AT1G58070, unknown biological function: 2.32
  Signal Fold Change AT1G59590, unknown biological function: 3.53
  Signal Fold Change AT1G59740 proton-dependent oligopeptide transport (POT) protein: 0.39
  Signal Fold Change AT1G62290 aspartyl protease protein: 0.27
  Signal Fold Change AT1G62510 lipid transfer protein: 2.17
  Signal Fold Change AT1G62620, unknown biological function: 2.47
  Signal Fold Change AT1G64200 V-ATPase E subunit: 2.41
  Signal Fold Change AT1G65510, unknown biological function: 2.74
  Signal Fold Change AT1G65920, unknown biological function: 0.31
  Signal Fold Change AT1G66230 myb transcription factor (MYB20): 2.70
  Signal Fold Change AT1G67030 zinc finger (C2H2 type) protein: 7.63
  Signal Fold Change AT1G68230, unknown biological function: 2.55
  Signal Fold Change AT1G68520 zinc finger (B-box type) protein: 2.74
  Signal Fold Change AT1G69570 Dof-type zinc finger-containing protein: 3.22
  Signal Fold Change AT1G70210 cyclin delta-1: 3.28
  Signal Fold Change AT1G70850 Bet v I allergen protein: 9.49
  Signal Fold Change AT1G70890 major latex protein: 5.19
  Signal Fold Change AT1G71030 myb transcription factor (MYB2): 5.41
  Signal Fold Change AT1G71740, unknown biological function: 2.84
  Signal Fold Change AT1G72230 plastocyanin like protein: 3.09
  Signal Fold Change AT1G73220 sugar transporter protein: 3.97
  Signal Fold Change AT1G73300 serine carboxypeptidase S10 protein: 2.36
  Signal Fold Change AT1G73310 serine carboxypeptidase S10 protein: 2.66
  Signal Fold Change AT1G73330 protease inhibitor: 4.31
  Signal Fold Change AT1G73590 auxin efflux carrier protein: 2.08
  Signal Fold Change AT1G73640, small GTPase mediated signal transduction, Ras-related GTP-binding protein: 2.10
  Signal Fold Change AT1G73830 bHLH protein: 0.37
  Signal Fold Change AT1G75500, unknown biological function: 3.37
  Signal Fold Change AT1G76220, unknown biological function: 3.55
  Signal Fold Change AT1G76500, photomorphogenesis, DNA-binding protein: 0.42
  Signal Fold Change AT1G76540 cell division control protein: 2.53
  Signal Fold Change AT1G76790, unknown biological function: 3.90
  Signal Fold Change AT1G78240 dehydration-responsive protein: 0.47
  Signal Fold Change AT1G80380 phosphoribulokinase: 2.14
  Signal Fold Change AT2G01910, microtubule nucleation, microtubule associated protein (MAP65/ASE1) protein: 2.62
  Signal Fold Change AT2G02820 myb transcription factor (MYB88): 4.00
  Signal Fold Change AT2G02850 plantacyanin: 0.23
  Signal Fold Change AT2G16580 auxin-responsive protein: 2.83
  Signal Fold Change AT2G16990, unknown biological function: 2.79
  Signal Fold Change AT2G19590 ACC oxidase: 0.28
  Signal Fold Change AT2G19970, unknown biological function: 3.06
  Signal Fold Change AT2G20080, unknown biological function: 3.75
  Signal Fold Change AT2G20670, unknown biological function: 2.45
  Signal Fold Change AT2G21820, unknown biological function: 0.85
  Signal Fold Change AT2G21880 Ras-related GTP-binding protein: 3.99
  Signal Fold Change AT2G22860 phytosulfokines 2 (PSK2): 2.67
  Signal Fold Change AT2G24150 expressed protein (response to hormone stimulus): 2.23
  Signal Fold Change AT2G25900 zinc finger (CCCH-type) protein: 1.48
  Signal Fold Change AT2G26070 expressed protein (response to ethylene stimulus): 0.28
  Signal Fold Change AT2G26440 pectinesterase protein: 0.38
  Signal Fold Change AT2G26740 epoxide hydrolase: 0.23
  Signal Fold Change AT2G27140 heat shock protein: 2.43
  Signal Fold Change AT2G27370, unknown biological function: 2.26
  Signal Fold Change AT2G28305, unknown biological function: 3.16
  Signal Fold Change AT2G28410, unknown biological function: 2.92
  Signal Fold Change AT2G29340 short-chain dehydrogenase: 0.30
  Signal Fold Change AT2G29440, toxin catabolic process, glutathione S-transferase: 0.20
  Signal Fold Change AT2G30360 CBL-interacting protein kinase 11 (CIPK11): 2.02
  Signal Fold Change AT2G33380 calcium-binding RD20 protein: 0.21
  Signal Fold Change AT2G33990, unknown biological function: 2.72
  Signal Fold Change AT2G34300, unknown biological function: 0.33
  Signal Fold Change AT2G34500 cytochrome P450: 4.05
  Signal Fold Change AT2G34510, unknown biological function: 2.70
  Signal Fold Change AT2G34700, unknown biological function: 1.03
  Signal Fold Change AT2G35300 late embryogenesis abundant group 1 domain-containing protein: 1.92
  Signal Fold Change AT2G35710 glycogenin glucosyltransferase: 2.23
  Signal Fold Change AT2G36350 protein kinase: 0.55
  Signal Fold Change AT2G36410, unknown biological function: 2.60
  Signal Fold Change AT2G37130 peroxidase 21: 2.23
  Signal Fold Change AT2G38760, unknown biological function: 4.10
  Signal Fold Change AT2G38790, unknown biological function: 1.99
  Signal Fold Change AT2G39010 aquaporin: 2.05
  Signal Fold Change AT2G39310, unknown biological function: 2.73
  Signal Fold Change AT2G39980, unknown biological function: 0.14
  Signal Fold Change AT2G40420 amino acid transporter: 2.03
  Signal Fold Change AT2G41090, unknown biological function: 0.19
  Signal Fold Change AT2G41230, unknown biological function: 0.07
  Signal Fold Change AT2G42320, unknown biological function: 0.53
  Signal Fold Change AT2G43050 pectinesterase protein: 2.35
  Signal Fold Change AT2G43535 trypsin inhibitor: 6.13
  Signal Fold Change AT2G44110 seven transmembrane MLO protein: 0.39
  Signal Fold Change AT2G44130 kelch repeat containing F-box protein: 3.39
  Signal Fold Change AT2G47510 fumarate hydratase: 0.43
  Signal Fold Change AT2G47550 pectinesterase protein: 0.39
  Signal Fold Change AT2G48030, unknown biological function: 2.61
  Signal Fold Change AT3G04010 glycosyl hydrolase: 1.98
  Signal Fold Change AT3G05990, signal transduction, phosphodiesterase leucine-rich repeat protein: 2.15
  Signal Fold Change AT3G09020, unknown biological function: 3.28
  Signal Fold Change AT3G09780 protein kinase: 0.50
  Signal Fold Change AT3G10080, unknown biological function: 2.52
  Signal Fold Change AT3G10340 phenylalanine ammonia-lyase: 1.94
  Signal Fold Change AT3G11550, unknown biological function: 2.39
  Signal Fold Change AT3G12030, DNA repair, expressed protein: 2.17
  Signal Fold Change AT3G12500 basic endocexemplary inase: 1.91
  Signal Fold Change AT3G13980, unknown biological function: 6.74
  Signal Fold Change AT3G14370 protein kinase: 0.30
